# Results from patent publication US20100152230A1, “HYDROXY SUBSTITUTED 1H-IMIDAZOPYRIDINES AND METHODS” (Pfizer Inc., priority 2005, published 2010).
# Where a name gives a salt, the structure may show the parent alone.
row,SMILES,melting point [°C]
1,"CCCCCc1cc2c(nc(O)n2Cc2ccccc2)c(N)n1 (as salt: salt) [Example 1, 4-Amino-1-benzyl-6-pentyl-1H-imidazo[4,5-c]pyridin-2-ol]",260 to 262
2,"CCCCCc1cc2c(nc(O)n2CCc2ccccc2)c(N)n1 [Example 2, 4-Amino-6-pentyl-1-(2-phenylethyl)-1H-imidazo[4,5-c]pyridin-2-ol]",238 to 240
3,"CCCCCc1cc2c(nc(O)n2CC(C)(C)O)c(N)n1 [Example 3, 4-Amino-1-(2-hydroxy-2-methylpropyl)-6-pentyl-1H-imidazo[4,5-c]pyridin-2-ol]",240 to 243
4,"CCCCCc1cc2c(nc(O)n2CC2CCOCC2)c(N)n1 [Example 4, 4-Amino-6-pentyl-1-(tetrahydro-2H-pyran-4-ylmethyl)-1H-imidazo[4,5-c]pyridin-2-ol]",> 250
5,"CCCCCc1cc2c(nc(O)n2Cc2cccnc2)c(N)n1 [Example 5, 4-Amino-6-pentyl-1-(pyridin-3-ylmethyl)-1H-imidazo[4,5-c]pyridin-2-ol]",243 to 245
6,CCCCCc1cc2c(nc(O)n2CCOCCCc2nccs2)c(N)n1 [Example 7],177 to 178
7,"CCCCCc1cc2c(nc(O)n2CCCNS(C)(=O)=O)c(N)n1 [Example 8, N-[3-(4-Amino-2-hydroxy-6-pentyl-1H-imidazo[4,5-c]pyridin-1-yl)propyl]methanesulfonamide]",174 to 176
8,"CCCCCc1cc2c(nc(O)n2CCCNC(C)=O)c(N)n1 [Example 10, N-[3-(4-Amino-2-hydroxy-6-pentyl-1H-imidazo[4,5-c]pyridin-1-yl)propyl]acetamide]",189 to 191
9,"CCCCCc1cc2c(nc(O)n2CC2CCNCC2)c(N)n1 [Example 11, 4-Amino-6-pentyl-1-(piperidin-4-ylmethyl)-1H-imidazo[4,5-c]pyridin-2-ol]",246 to 249
10,"CCCCCc1cc2c(nc(O)n2CC2CCN(S(C)(=O)=O)CC2)c(N)n1 [Example 12, 4-Amino-1-{[1-(methylsulfonyl)piperidin-4-yl]methyl}-6-pentyl-1H-imidazo[4,5-c]pyridin-2-ol]",228 to 231
11,"CCCCCc1cc2c(nc(O)n2CC2CCN(C(C)=O)CC2)c(N)n1 [Example 13, 1-[(1-Acetylpiperidin-4-yl)methyl]-4-amino-6-pentyl-1H-imidazo[4,5-c]pyridin-2-ol]",228 to 231
12,"CCCCCc1cc2c(nc(O)n2CC2CCN(S(=O)(=O)CC)CC2)c(N)n1 [Example 14, 4-Amino-1-{[1-(ethylsulfonyl)piperidin-4-yl]methyl}-6-pentyl-1H-imidazo[4,5-c]pyridin-2-ol]",222 to 225
13,"CCCCCc1cc2c(nc(O)n2CC2CCN(C(=O)C3CC3)CC2)c(N)n1 [Example 15, 4-Amino-1-{[1-(cyclopropylcarbonyl)piperidin-4-yl]methyl}-6-pentyl-1H-imidazo[4,5-c]pyridin-2-ol]",205 to 207
14,"CCCCCc1cc2c(nc(O)n2CCCCS(C)(=O)=O)c(N)n1 [Example 16, 4-Amino-1-[4-(methylsulfonyl)butyl]-6-pentyl-1H-imidazo[4,5-c]pyridin-2-ol]",188 to 189
15,"CCCCCc1cc2c(nc(O)n2CCS(C)(=O)=O)c(N)n1 [Example 17, 4-Amino-1-[2-(methylsulfonyl)ethyl]-6-pentyl-1H-imidazo[4,5-c]pyridin-2-ol]",223 to 225
16,"CCOCCc1cc2c(nc(O)n2CCCCS(C)(=O)=O)c(N)n1 [Example 18, 4-Amino-6-(2-ethoxyethyl)-1-[4-(methylsulfonyl)butyl]-1H-imidazo[4,5-c]pyridin-2-ol]",203 to 206
17,"Cc1nc(N)c2nc(O)n(Cc3cc(-c4ccc(F)cc4)no3)c2c1C [Example 19, 4-Amino-1-{[3-(4-fluorophenyl)isoxazol-5-yl]methyl}-6,7-dimethyl-1H-imidazo[4,5-c]pyridin-2-ol]",250
18,"Cc1cc(Cn2c(O)nc3c(N)nc(C)c(C)c32)on1 [Example 20, 4-Amino-6,7-dimethyl-1-[(3-methylisoxazol-5-yl)methyl]-1H-imidazo[4,5-c]pyridin-2-ol]",> 300
19,"CCCCCc1cc2c(nc(O)n2[C@@H](C)c2ccccc2)c(N)n1 [Example 21, 4-Amino-6-pentyl-1-[(1S)-1-phenylethyl]-1H-imidazo[4,5-c]pyridin-2-ol]",146.7 to 147.7
20,"CCCCCc1cc2c(nc(O)n2[C@H](C)c2ccccc2)c(N)n1 [Example 22, 4-Amino-6-pentyl-1-[(1R)-1-phenylethyl]-1H-imidazo[4,5-c]pyridin-2-ol]",147.1 to 148
21,"CCCCOc1cc2c(nc(O)n2Cc2ccccc2)c(N)n1 [Example 23, 4-amino-1-benzyl-6-butoxy-1H-imidazo[4,5-c]pyridin-2-ol]",205 to 208
